Assay results as given in ChEMBL document CHEMBL1125627 (J Med Chem, 1991).

How the values were obtained:
[1] = Percentage ionization was measured; format: ADME
[2] = Serum protein binding ability was measured; format: ADME

Row | Ionization [1] [%] | Binding [2] [%] | pKa (physchem) | Compound
1 | > 96 | 80 | 8.8 | CC[C@H]1OC(=O)[C@H](C)[C@@H](O[C@H]2C[C@@](C)(OC)[C@@H](O)[C@H](C)O2)[C@H](C)[C@@H](O[C@@H]2O[C@H](C)C[C@H](N(C)C)[C@H]2O)[C@](C)(O)C[C@@H](C)C(=O)[C@H](C)[C@@H](O)[C@]1(C)O [ERYTHROMYCIN]
2 | > 96 | 95 | 9.2 | CC[C@H]1OC(=O)[C@H](C)[C@@H](O[C@H]2C[C@@](C)(OC)[C@@H](O)[C@H](C)O2)[C@H](C)[C@@H](O[C@@H]2O[C@H](C)C[C@H](N(C)C)[C@H]2O)[C@](C)(O)C[C@@H](C)/C(=N\OCOCCOC)[C@H](C)[C@@H](O)[C@]1(C)O [ROXITHROMYCIN]
